Results taken from PMC11904221 (EMBO Molecular Medicine, 2025).
Values after ≈ are worked out from the molar mass of the structure shown. Where two headings read alike, the source gives them in different places. Where a SMILES comes first, the peptide text is derived from it.

Assays:
in vitro [1] = experiment: in vitro
[2] = pH 7.4, aqueous buffer
[3] = Time-dependent stability in water and in plasma on storage, LC-MS; format: physicochemical; conditions: read-out: % of area at T=0
Protocol: The standard deviations were below the acceptable values (<15%) showing that the accuracy is correct and compliant with standard quantification protocols. […]
the linearity of the method. […]
for concentrations below 0.5 µM.
The second step of the study consisted to analyse the stability of the peptide in order to evaluate the feasibility of the quantification of APLN-DM in the samples obtained in vivo.
Quantification in the plasma after protein precipitation
Before the injection for LC-MS analysis, the plasmas had to be processed for elimination of major proteins, which can disturb the analysis. Proteins were precipitated by an organic solvent. […]
The second method was adapted from the protocol described by O. Chertov et al. (Proteomics 2004, 4, 1195- […]
1203). […] 7 µl of this solution were […]
added to 70 µl plasma or 70 µl water (control).
10 µl of each sample were mixed to 20 µl water, vortexed, mixed to 45 µl d’acetonitrile + 0.1% trifluoroacetic acid, sonicated, vortexed, centrifuged for 15 minutes. The supernatant was evaporated and the pellet was re-suspended in 30 µl water. The 2 samples (peptide in plasma or in water) were injected in LC-MS according to the conditions previously established.
With this method, the recovery of APLN-DM in the plasma after protein precipitation was sufficient.
The coefficient of variation was acceptable. This method was used for the stability study in the plasma.
7 µl were added to 3 samples […]
of 70 µl plasma or 70 µl water.
Six solutions were obtained:
-W RT : solution in water stored at room temperature
-W 4°C : solution in water stored at 4°C
-W -18°C : solution in water stored at -18°C
-P RT : solution in plasma stored at room temperature
-P 4°C : solution in plasma stored at 4°C
-P -18°C : solution in plasma stored at -18°C. […]
processed for protein extraction (according to the method previously described), and then injected in […]
LC-MS for APLN-DM quantification. For […]
each sample, % were calculated according to the area obtained at T=0 which correspo nd to 100%.

in vivo = conditions: BALB/c, mouse, ip
Protocol: Pharmacological profile of APLN-DM peptide
Maximal Tolerated Dose (MTD) study of APLN -DM in mice
Six groups comprising six Balb/C mice per group (3 males and 3 females) were assigned to the study. In each gender, one control group (1 Male (M)/1 female (F)) received the reference solution (vehicle) and 5 […]
mg/kg (4M/4F), 2000 mg/kg (5M/5F) and 1500 mg/kg (6M/6F). APLN-DM peptide was administrated via intra-peritoneal (IP) single injection at day 1 followed by observation during 14 days. During the study, mortality, morbidity, general clinical signs and bod y weight were recorded. In the end of the study pathology and organ necropsy examination were performed. Thereby, APLN-DM peptide and vehicle were administered to mice according to Table-1 and their effects were analyzed according to Table-2.
Each test item dose was administrated to 3 female and 3 male mice. The administration was performed IP at a dose volume of 10 ml/kg. Dosing was performed according to Figure-1 and each increase in dose pending on the outcome of the previous dose (results of clinical signs). The lag time between the increasing doses was approximately 48h.
No. (n=) Mouse# Treatment Dose Level administration administratio […]
Table-1. Study design -1. […], […]
Study Day* Procedure Body Weight Clinical Mortality & Organ
Sign Morbidity observation
2-14 - Twice weekly Once -
15 Termination √ √ Gross pathology
Figure 1 - Decisional tree for successive dosing for MTD determination […]
At study termination, body weight (Figure 2 and Figure 3) and gross pathology abnormalities were analyzed in all animals. Main pathological finding were blood clots in intestine and chest cavity. Treatment-related clinical adverse side effects (purple tail, lethargy, decreased motor activity) were observed also in groups treated either with 200, 500, 1000 and 1500 mg/kg. The tail recovered a normal color after 1 hour in all dose groups. […]
abnormalities were detected in all male and female animals from these groups at the scheduled termination […]

in vitro [4] = experiment: in vitro; remark: listed apart in the source
in vitro [5] = experiment: in vitro; remark: listed apart in the source

Q: For CSCC[C@H](NC(=O)[C@@H]1CCCN1C(=O)CNC(=O)[C@H](CCCCN)NC(=O)[C@H](Cc1c[nH]cn1)NC(=O)[C@H](CO)NC(=O)[C@H](CC(C)C)NC(=O)[C@H](CCCNC(=N)N)NC(=O)[C@@H]1CCCN1C(=O)[C@H](CCCNC(=N)N)NC(=O)[C@H](CCC(N)=O)NC(=O)[C@H](CO)NC(=O)[C@H](CO)NC(=O)[C@H](Cc1ccccc1)NC(=O)[C@H](CCCCN)NC(=O)[C@H](CO)NC(=O)[C@H](CO)NC(=O)CNC(=O)CNC(=O)[C@H](CCC(N)=O)NC(=O)[C@H](Cc1c[nH]c2ccccc12)NC(=O)[C@@H]1CCCN1C(=O)CNC(=O)[C@@H]1CCCN1C(=O)CNC(=O)[C@H](CC(N)=O)NC(=O)[C@H](CCCNC(=N)N)NC(=O)[C@H](CO)NC(=O)CNC(=O)[C@H](CCCNC(=N)N)NC(=O)[C@@H]1CCCN1C(=O)[C@H](CCC(N)=O)NC(=O)[C@@H](NC(=O)[C@@H](N)CC(C)C)C(C)C)C(=O)N1CCC[C@H]1C(=O)N[C@@H](Cc1ccccc1)C(=O)O [APLN-DM] (H-LVQPRGSRNGPGPWQGGSSKFSSQRPRLSHKGPMPF-OH), which “Half-life in human plasma” value (in vitro [1]) is on record?
A: > 18 h

Q: What about the “Half-life, 1st” value (in vitro [1]; human) of the same compound?
A: 21.173 h

Q: What about the “Half-life, 2nd” value (in vitro [1]; human) of the same compound?
A: 16.21 h

Q: What about the half-life at 1 µM (in vitro [1]; human, plasma) of the same compound?
A: 18.7 h

Q: What about the remaining at 0.5 h (in vitro [1]; human, plasma) of the same compound?
A: 99%

Q: And the remaining at 1 h (in vitro [1]; human, plasma)?
A: 98%

Q: What about the remaining at 2 h (in vitro [1]; human, plasma) of the same compound?
A: 93%

Q: And the solubility thermodynamic [2]?
A: 187 µM (≈ 734 µg/mL)

Q: What about the remaining at 2 h ([3]; P 4°C) of the same compound?
A: 51%

Q: And the remaining at 168 h ([3]; P 4°C)?
A: 6%

Q: What about the remaining at 1 h ([3]; P 4°C: in plasma, 4°C) of the same compound?
A: 66%

Q: And the remaining at 2 h ([3]; P -18°C)?
A: 66%

Q: And the remaining at 5 h ([3]; P -18°C)?
A: 114%

Q: What about the remaining at 24 h ([3]; P -18°C) of the same compound?
A: 86%

Q: What about the remaining at 48 h ([3]; P -18°C) of the same compound?
A: 97%

Q: And the remaining at 72 h ([3]; P -18°C)?
A: 89%

Q: And the remaining at 168 h ([3]; P -18°C)?
A: 12%

Q: And the remaining at 1 h ([3]; P -18°C: in plasma, -18°C)?
A: 75%

Q: What about the remaining at 2 h ([3]; P RT) of the same compound?
A: 17%

Q: What about the remaining at 5 h ([3]; P RT) of the same compound?
A: 13%

Q: And the remaining at 24 h ([3]; P RT)?
A: 8%

Q: And the remaining at 48 h ([3]; P RT)?
A: 14%

Q: What about the remaining at 72 h ([3]; P RT) of the same compound?
A: 7%

Q: What about the remaining at 168 h ([3]; P RT) of the same compound?
A: 22%

Q: And the remaining at 1 h ([3]; P RT: in plasma, room temperature)?
A: 21%

Q: And the MTD at 336 h (in vivo; female)?
A: 1000 mg/kg

Q: And the MTD at 336 h (in vivo; male)?
A: 1500 mg/kg

Q: And the “% Protein bound, 1st” value (in vitro [4])?
A: 56.8%

Q: What about the “% Protein bound, 2nd” value (in vitro [4]) of the same compound?
A: 52.2%

Q: And the “% Recovery, 1st” value (in vitro [4])?
A: 123%

Q: What about the “% Recovery, 2nd” value (in vitro [4]) of the same compound?
A: 125%

Q: What about the “% Recovery, Mean” value (in vitro [4]) of the same compound?
A: 124%

Q: And the fraction unbound at 4 h, 1e-05 M (in vitro [4]; human, plasma)?
A: 0.46

Q: What about the “% Protein bound, 1st” value (in vitro [5]) of the same compound?
A: 26.1%

Q: And the “% Protein bound, 2nd” value (in vitro [5])?
A: 26.9%

Q: What about the “% Recovery, Mean” value (in vitro [5]) of the same compound?
A: 93%

Q: And the fraction unbound at 4 h, 1e-05 M (in vitro [5]; CD-1, mouse, plasma)?
A: 0.74
